Test results: PubChem BioAssay AID1919016 (Molecular Pharmacology Branch, DTP, NCI, 2023)
Values joined by “and” are separate entries in the source; they are usually repeats but may differ in a detail not shown here. Identical values can stand only once.

Test system: NCI-H196 complex spheroid growth, percent test/control
Test: Anticancer human tumor NCI-H196 cell line growth inhibition [AhR];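 also: seven days of drug exposure starting three days after plating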;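 as to viability, T/C: 100% = DMSO vehicle control wells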
Conditions: for viability, T/C: stronger effect = lower value
From the text: Multicellular complex tumor spheroid response to aryl hydrocarbon receptor antagonists in combination with a variety of drugs and investigational agents in selected tumor cell lines
The current study was undertaken to assess response to aryl hydrocarbon receptor antagonists in combination with standard-of-care drugs and investigational agents in solid tumor complex spheroid models. Complex spheroids include a stromal component modeled by human endothelial cells (HUVEC) and fibroblasts modeled by human mesenchymal stem cells (MSCs). The concentration ranges selected for each drug and investigational agent were based upon clinically achievable concentrations if the clinical Cmax of the agent was known.
Compounds. The drugs and investigational agents: BAY 2416964 (NSC825713), GNF351 (NSC835774), CH-223191 (NSC835775), CPI-455 (NSC825282), aza-TdCyd (NSC777586), decitabine (NSC127716), belinostat (NSC758774), entinostat (NSC756642), pevonedistat (NSC761192), tazemetostat (NSC777109), talazoparib (NSC765396), olaparib (NSC753686), selinexor (NSC780203), nedisertib (M3814, NSC802822), bortezomib (NSC756655), venetoclax (NSC766270), doxorubicin (NSC123127), elimusertib (BAY189344, NSC800525), ceralasertib (AZD6738, NSC777638), TAK-243 (NSC785004), alisertib (NSC759677), etoposide (NSC141540), topotecan (NSC609699), eribulin (NSC707389), gemcitabine (NSC613327), carboplatin (NSC241240), cisplatin (NSC119875), and SN-38 (NSC673596) were obtained from the National Cancer Institute (NCI) Developmental Therapeutics Program Chemical Repository (32). The FDA-approved anticancer drug set is available from the Developmental Therapeutics Program at https://dtp.cancer.gov/organization/dscb/obtaining/available plates.htm. […] The stock solutions were prepared in dimethyl sulfoxide (DMSO, Sigma-Aldrich, St. Louis, MO, cat. D2650), except for the platinum compounds which were prepared in saline (Quality Biological, Gaithersburg, MD, cat. 114-055-101), at 800-fold the tested concentration and stored at -70 degrees C prior to their use. All drugs and investigational agents were tested over a range starting from a high concentration at or near the clinical Cmax and decreasing in half-log increments. If the clinical Cmax for an agent had not been determined, the highest concentration tested was 10 microM (Table 1).
Cell Culture. All cells were maintained in an incubator at 37 degrees C and 5% CO2 with 95% humidity. The PDC lines were cultured according to standard operating procedures established by the NCI PDMR (https://pdmr.cancer.gov). Briefly, all PDCs were thawed and cultured in Matrigel-coated flasks prepared with a working solution of 1X Ham's F-12 nutrient mix, without supplementation (Invitrogen, Waltham, MA, cat. 11765054), 100 U/mL penicillin-streptomycin (Invitrogen, cat. 15140122), and 2.5% Matrigel (Corning Inc., Corning, NY, cat. 354248) for the first three passages. All PDCs were cultured in complete DMEM/F-12 media containing advanced DMEM/F-12 (Invitrogen, cat. 12634028), 4.9% defined fetal bovine serum, heat inactivated (HyClone Laboratories Inc., Logan, UT, cat. SH30070.03HI), 389 ng/mL hydrocortisone (Sigma-Aldrich, cat. H4001), 9.7 ng/mL human EGF recombinant protein (Invitrogen, cat. PHG0313), 23.4 microg/mL adenine (Sigma-Aldrich, cat. A2786), 97.3 U/mL penicillin-streptomycin (Invitrogen, cat. 15140122), 1.9 mM L-glutamine (Invitrogen, cat. 25030081), and 9.7 microM Y-27632 dihydrochloride (Tocris Bioscience, Bristol, United Kingdom, cat. 1254). The PDCs were cultured in complete DMEM/F12 media without 10 microM Y-27632 dihydrochloride for at least two passages prior to the screen. The established cell lines NCI-H1341 and […] were cultured in DMEM/F-12, HEPES (Invitrogen, cat. 11330032), 5% defined fetal bovine serum (HyClone Laboratories Inc., cat. SH30070.03), ITS premix universal culture supplement [insulin (5 microg/mL), transferrin (5 microg/mL), and selenious acid (5 ng/mL)] […]

[1] = curve of first compound, second compound 0.1 µM
[2] = curve of first compound, second compound 0.316 µM
[3] = curve of first compound, second compound 1 µM
[4] = curve of first compound, second compound 3.16 µM
[5] = curve of first compound, second compound 10 µM
[6] = second compound 0.1 µM, first compound 0.0316 µM
[7] = second compound 0.1 µM, first compound 0.1 µM
[8] = second compound 0.1 µM, first compound 0.316 µM
[9] = second compound 0.1 µM, first compound 1 µM
[10] = second compound 0.1 µM, first compound 3.16 µM
[11] = second compound 0.1 µM, first compound 10 µM
[12] = second compound 0.316 µM, first compound 0.0316 µM
[13] = second compound 0.316 µM, first compound 0.1 µM
[14] = second compound 0.316 µM, first compound 0.316 µM
[15] = second compound 0.316 µM, first compound 1 µM
[16] = second compound 0.316 µM, first compound 3.16 µM
[17] = second compound 0.316 µM, first compound 10 µM
[18] = second compound 1 µM, first compound 0.0316 µM
[19] = second compound 1 µM, first compound 0.1 µM
[20] = second compound 1 µM, first compound 0.316 µM
[21] = second compound 1 µM, first compound 1 µM
[22] = second compound 1 µM, first compound 3.16 µM
[23] = second compound 1 µM, first compound 10 µM
[24] = second compound 3.16 µM, first compound 0.0316 µM
[25] = second compound 3.16 µM, first compound 0.1 µM
[26] = second compound 3.16 µM, first compound 0.316 µM
[27] = second compound 3.16 µM, first compound 1 µM
[28] = second compound 3.16 µM, first compound 3.16 µM
[29] = second compound 3.16 µM, first compound 10 µM
[30] = second compound 10 µM, first compound 0.0316 µM
[31] = second compound 10 µM, first compound 0.1 µM
[32] = second compound 10 µM, first compound 0.316 µM
[33] = second compound 10 µM, first compound 1 µM
[34] = second compound 10 µM, first compound 3.16 µM
[35] = second compound 10 µM, first compound 10 µM

## CC1(C)CCC(CN2CCN(c3ccc(C(=O)NS(=O)(=O)c4ccc(NCC5CCOCC5)c([N+](=O)[O-])c4)c(Oc4cnc5[nH]ccc5c4)c3)CC2)=C(c2ccc(Cl)cc2)C1 + Cc1ccccc1N=Nc1ccc(NC(=O)c2ccnn2C)c(C)c1
[1]
  IC50: > 10000 nM
[2]
  IC50: > 10000 nM
[3]
  IC50: > 10000 nM
[4]
  IC50: > 10000 nM
[5]
  IC50: > 10000 nM
[6]
  viability, T/C: 111%
[7]
  viability, T/C: 109%
[8]
  viability, T/C: 109%
[9]
  viability, T/C: 97%
[10]
  viability, T/C: 115%
[11]
  viability, T/C: 66%
[12]
  viability, T/C: 101%
[13]
  viability, T/C: 106%
[14]
  viability, T/C: 99.9%
[15]
  viability, T/C: 102%
[16]
  viability, T/C: 108%
[17]
  viability, T/C: 74.9%
[18]
  viability, T/C: 100%
[19]
  viability, T/C: 107%
[20]
  viability, T/C: 108%
[21]
  viability, T/C: 102%
[22]
  viability, T/C: 102%
[23]
  viability, T/C: 75.5%
[24]
  viability, T/C: 104%
[25]
  viability, T/C: 111%
[26]
  viability, T/C: 107%
[27]
  viability, T/C: 104%
[28]
  viability, T/C: 104%
[29]
  viability, T/C: 67.2%
[30]
  viability, T/C: 95.6%
[31]
  viability, T/C: 99.2%
[32]
  viability, T/C: 100%
[33]
  viability, T/C: 99.8%
[34]
  viability, T/C: 100%
[35]
  viability, T/C: 74.6%

## Nc1ccn(C2OC(CO)C(O)C2(F)F)c(=O)n1 (configuration not stated) + Cc1ccccc1N=Nc1ccc(NC(=O)c2ccnn2C)c(C)c1
[1]
  IC50: > 10000 nM
[2]
  IC50: > 10000 nM
[3]
  IC50: > 10000 nM
[4]
  IC50: > 10000 nM
[5]
  IC50: > 10000 nM
[6]
  viability, T/C: 88.8%
[7]
  viability, T/C: 85.5%
[8]
  viability, T/C: 53.4%
[9]
  viability, T/C: 52.1%
[10]
  viability, T/C: 57.6%
[11]
  viability, T/C: 59.6%
[12]
  viability, T/C: 91.4%
[13]
  viability, T/C: 88.2%
[14]
  viability, T/C: 58.7%
[15]
  viability, T/C: 54%
[16]
  viability, T/C: 54.5%
[17]
  viability, T/C: 60.1%
[18]
  viability, T/C: 88.7%
[19]
  viability, T/C: 90.4%
[20]
  viability, T/C: 62.5%
[21]
  viability, T/C: 53.2%
[22]
  viability, T/C: 56.1%
[23]
  viability, T/C: 60.2%
[24]
  viability, T/C: 93.3%
[25]
  viability, T/C: 91.3%
[26]
  viability, T/C: 62.7%
[27]
  viability, T/C: 57.1%
[28]
  viability, T/C: 55%
[29]
  viability, T/C: 55.9%
[30]
  viability, T/C: 85.2%
[31]
  viability, T/C: 90.8%
[32]
  viability, T/C: 75.9%
[33]
  viability, T/C: 61.9%
[34]
  viability, T/C: 60.1%
[35]
  viability, T/C: 64.3%

## O=C(C=Cn1cnc(-c2cc(C(F)(F)F)cc(C(F)(F)F)c2)n1)NNc1cnccn1 + CC(CO)NC(=O)c1cc(-c2ccc(Cl)cc2)nn(-c2cnn(C)c2)c1=O
[1]
  IC50: 45.1 nM
[2]
  IC50: 37.4 nM
[3]
  IC50: 33.3 nM
[4]
  IC50: 38.4 nM
[5]
  IC50: 45.8 nM
Second compound 0.1 µM, first compound 0.00949 µM
  viability, T/C: 71.2%
Second compound 0.1 µM, first compound 0.03 µM
  viability, T/C: 71.1%
Second compound 0.1 µM, first compound 0.0949 µM
  viability, T/C: 11.6%
Second compound 0.1 µM, first compound 0.3 µM
  viability, T/C: 11.1%
Second compound 0.1 µM, first compound 0.949 µM
  viability, T/C: 7.23%
Second compound 0.1 µM, first compound 3 µM
  viability, T/C: 6.89%
Second compound 0.316 µM, first compound 0.00949 µM
  viability, T/C: 74.7%
Second compound 0.316 µM, first compound 0.03 µM
  viability, T/C: 58.2%
Second compound 0.316 µM, first compound 0.0949 µM
  viability, T/C: 14.9%
Second compound 0.316 µM, first compound 0.3 µM
  viability, T/C: 12.3%
Second compound 0.316 µM, first compound 0.949 µM
  viability, T/C: 8.19%
Second compound 0.316 µM, first compound 3 µM
  viability, T/C: 7.69%
Second compound 1 µM, first compound 0.00949 µM
  viability, T/C: 73.2%
Second compound 1 µM, first compound 0.03 µM
  viability, T/C: 53.6%
Second compound 1 µM, first compound 0.0949 µM
  viability, T/C: 14.3%
Second compound 1 µM, first compound 0.3 µM
  viability, T/C: 7.96%
Second compound 1 µM, first compound 0.949 µM
  viability, T/C: 8.07%
Second compound 1 µM, first compound 3 µM
  viability, T/C: 6.9%
Second compound 3.16 µM, first compound 0.00949 µM
  viability, T/C: 75.9%
Second compound 3.16 µM, first compound 0.03 µM
  viability, T/C: 59.1%
Second compound 3.16 µM, first compound 0.0949 µM
  viability, T/C: 16.4%
Second compound 3.16 µM, first compound 0.3 µM
  viability, T/C: 7.92%
Second compound 3.16 µM, first compound 0.949 µM
  viability, T/C: 6.29%
Second compound 3.16 µM, first compound 3 µM
  viability, T/C: 7.99%
Second compound 10 µM, first compound 0.00949 µM
  viability, T/C: 80.6%
Second compound 10 µM, first compound 0.03 µM
  viability, T/C: 69.1%
Second compound 10 µM, first compound 0.0949 µM
  viability, T/C: 17.2%
Second compound 10 µM, first compound 0.3 µM
  viability, T/C: 11.2%
Second compound 10 µM, first compound 0.949 µM
  viability, T/C: 10.8%
Second compound 10 µM, first compound 3 µM
  viability, T/C: 7.46%

## CC(C)CC(NC(=O)C(Cc1ccccc1)NC(=O)c1cnccn1)B(O)O (configuration not stated)
Compound 0.000949 µM
  viability, T/C: 98.7% and 106% and 105%
Compound 0.003 µM
  viability, T/C: 96.1% and 99.1% and 101%
Compound 0.00949 µM
  viability, T/C: 36.6% and 76.3% and 35.7%
Compound 0.03 µM
  viability, T/C: 2.1% and 7.38% and 4.57%
Compound 0.0949 µM
  viability, T/C: 1.67% and 5.37% and 2.7%
Compound 0.3 µM
  viability, T/C: 2.25% and 4.21% and 2%
Curve of compound
  IC50: 7.32 nM and 14.8 nM and 7.37 nM
